{"source": "paper PMC5813016", "about": "(Nature Communications, 2018)", "key": {"[1]": {"assay": "Rat pharmacokinetic studies", "assay_type": "in vivo, Wistar Hannover rat", "conditions": "for plasma concentration profile after oral administration: compared with SKF-38393; for clearance / Vd / bioavailability / half-life: male, Wistar Hannover, plasma; for clearance / Vd: iv; for Vd: read-out: Vdss; for bioavailability: oral bioavailability; for half-life: read-out: t½ (converted)", "protocol": "Rat pharmacokinetic studies were conducted at BioDuro, Pharmaceutical Product Development, Inc. (Shanghai, China). Wistar Hannover rats (227–293 gram weight) were obtained from Vital River Laboratories (China). All animal studies were conducted in accordance with the Pfizer Institutional Animal Care and Use Committee (Groton, CT), using protocols approved by Pfizer PDM′s Global BA Committee (2009). Jugular vein-cannulated male Wistar Hanover rats were maintained on a 12 h light/dark cycle for a minimum of three days in a temperature-controlled and humidity-controlled environment with free access to food and water. Individual animals (n = 2 or 3 per dose/route) were administered a single dose of compound by either intravenous injection via tail vein or oral gavage based on body weight. […] The PF-6142 intravenous dose (1 mg/kg) was formulated in saline acidified with three molar equivalents of 1 N hydrochloric acid and the PF-6142 oral dose (5 mg/kg) was formulated in 0.5% methylcellulose. […] Formulations were agitated until all of the test article was dissolved. […] From each rat, serial blood samples were collected via jugular vein cannula prior to dose administration and at the following time points post-dose: 0.033 (i.v. only), 0.083, 0.25, 0.5, 1, 2, 4, 7, and 24 h. […] All blood samples were placed on wet ice until centrifugation. Following centrifugation, the plasma was transferred to polypropylene tubes and stored frozen at either −20 °C to −80 °C until analysis. Urine was collected from all intravenous-dosed rats into collection tubes from the collection intervals of 0–7 h and 7–24 h post-dose. […] All urine samples were stored at −80 °C until analysis. All samples were processed for quantitation of compound concentrations using protein precipitation methodology followed by analysis using liquid chromatography-tandem mass spectrometry (LC-MS/MS). […] The pharmacokinetic parameters (including those in Supplementary Table 3) were computed by non-compartmental analysis[61] using Watson Bioanalytical LIMS version 7.4 (Thermo Fischer Scientific, CA)."}, "[2]": {"system": "rats with unilateral 6-OHDA lesions", "assay": "Rat unilateral 6-OHDA lesion model, contralateral rotations", "assay_type": "in vivo, Sprague-Dawley rat", "conditions": "for contralateral rotational behavior on repeated dosing: 6-OHDA lesioned rats, six doses every 12 h, A-77636 0.32 mg/kg s.c., PF-2334 10.78 mg/kg oral; for pairwise contrast of rotational speed, estimate: 6-OHDA rats", "protocol": "Sprague-Dawley rats with 6-OHDA lesions were obtained from Taconic (Rensselaer, NY). For the lesion surgery rats (~175 g) were anesthetized with isoflurane and given desipramine to protect noradrenergic neurons (10 mg/kg). The medial forebrain was targeted using AP:−4.3 mm; ML:−1.2 mm; DV:8.3 mm using a 30 G cannula. […] The cannula was left in place post-infusion for 5 min. To assess the extent of the lesion animals were given an apomorphine (0.05 mg/kg S.C.) challenge 21 day after the lesion surgery. Matched sham lesioned animals from the same source received exactly the same procedures except saline was infused into the brain. Only animals with more than 180 contralateral rotations over 30 min or more than 30 rotations in multiple 5 min intervals were used for the study. Experiments began 12 weeks after lesion.\nRats with sham (n = 20) and unilateral 6-OHDA lesions (n = 17) were obtained and four weeks after lesion used for the study. […] Animals followed a normal light cycle (6:00 AM lights on and 6:00 PM lights off). Animals were provided with food and water ad libitum in the chambers. Activity was monitored with infrared ceiling cameras (Y-cam, London, UK) and rotational behavior was quantified by automated movie analysis via validated custom software. Animals were acclimated and recorded for 2 h to the test chambers prior to the first dose.\nRotational behavior was detected using custom software written in Python language, version 2.7. OpenCV library, version 2.10 was used for video analyses[73],[74]. R software, version 3.1.0, was used for statistical analyses. Rotational behavior is described as the average number of rotations per minute (RPM) during the 6 h period immediately following each dose. To quantify changes within each treatment group as well as differences between treatments over time we used a longitudinal mixed model two-way ANOVA[75] with time, treatment, and their interaction as fixed factors and animal as a random factor. Least-squares means for specified factors were estimated using lsmeans library. Post-hoc comparisons to reference time point were adjusted for multiple hypothesis testing via Dunnett′s method. All statistical tests were performed two-tailed at a 5% level of significance."}, "human D1R W318A mutant": {"system": "human D1R W318A mutant", "assay": "cAMP assay, D1R mutant W318A", "conditions": "relative to wild-type D1R; each table line is one experiment (Experiment # 1-6)"}}, "note": "Where “and” joins values, the source holds several entries; their conditions need not be identical. Identical values can stand only once. Entries after “also recorded” stand apart in the source; their conditions may differ."}
{"smiles": "Cc1n[nH]c(=O)c(C)c1-c1ccc(Oc2nccc3occc23)cc1F", "note": "[PF-2334]", "values": [{"measurement": "plasma concentration profile after oral administration", "setting": "[1]", "result": "more sustained plasma concentration profiles"}, {"measurement": "clearance", "setting": "[1]", "result": 20.8, "unit": "mL/min/kg"}, {"measurement": "Vd", "setting": "[1]", "result": 1.2, "unit": "L/kg"}, {"measurement": "bioavailability", "setting": "[1]", "result": 57.2, "unit": "%"}, {"measurement": "half-life", "setting": "[1]", "result": 48, "unit": "min"}, {"measurement": "contralateral rotational behavior on repeated dosing", "setting": "[2]", "result": "significantly greater rotational behavior than A-77636 treated animals; also recorded: still displaying contralateral rotational behavior following the 6th dose"}, {"measurement": "pairwise contrast of rotational speed, estimate", "setting": "[2]; PF-2334 10.78 mg/kg p.o. every 12 h, contrast (time range, hours) 24 - 36, least-squares means", "result": 0.4016}, {"measurement": "pairwise contrast of rotational speed, estimate", "setting": "[2]; PF-2334, contrast (hours) 24 - 48", "result": 0.3322}, {"measurement": "pairwise contrast of rotational speed, estimate", "setting": "[2]; PF-2334, contrast (hours) 24 - 60", "result": 0.371}, {"measurement": "pairwise contrast of rotational speed, estimate", "setting": "[2]; PF-2334, contrast (hours) 24 - 72 (72 h = quinpirole dose)", "result": 1.093}, {"measurement": "pairwise contrast of rotational speed, estimate", "setting": "[2]; PF-2334, contrast (hours) 36 - 48", "result": -0.06943}, {"measurement": "pairwise contrast of rotational speed, estimate", "setting": "[2]; PF-2334, contrast (hours) 36 - 60", "result": -0.03066}, {"measurement": "pairwise contrast of rotational speed, estimate", "setting": "[2]; PF-2334, contrast (hours) 36 - 72 (72 h = quinpirole dose)", "result": 0.6914}, {"measurement": "pairwise contrast of rotational speed, estimate", "setting": "[2]; PF-2334, contrast (hours) 48 - 60", "result": 0.03877}, {"measurement": "pairwise contrast of rotational speed, estimate", "setting": "[2]; PF-2334, contrast (hours) 48 - 72 (72 h = quinpirole dose)", "result": 0.7609}, {"measurement": "pairwise contrast of rotational speed, estimate", "setting": "[2]; PF-2334, contrast (hours) 60 - 72 (72 h = quinpirole dose)", "result": 0.7221}]}
{"smiles": "Cc1cc(Oc2nccc3occc23)ccc1-c1c(C)ncnc1C", "note": "[PF-8871]", "values": [{"measurement": "fold shift of cAMP functional potency, W318A (EC50 mutant/ EC50 WT)", "setting": "human D1R W318A mutant", "result": 12.5}]}
{"smiles": "Cc1cc(Oc2nccc3occc23)ccc1-c1c(C)ncc2nccn12", "note": "[PF-6142]", "values": [{"measurement": "fold shift of cAMP functional potency, W318A (EC50 mutant/ EC50 WT)", "setting": "human D1R W318A mutant", "result": "16.3 and 20.4"}, {"measurement": "plasma concentration profile after oral administration", "setting": "[1]", "result": "more sustained plasma concentration profiles"}, {"measurement": "clearance", "setting": "[1]", "result": 42.5, "unit": "mL/min/kg"}, {"measurement": "Vd", "setting": "[1]", "result": 2.4, "unit": "L/kg"}, {"measurement": "bioavailability", "setting": "[1]", "result": 85.4, "unit": "%"}, {"measurement": "half-life", "setting": "[1]", "result": 66, "unit": "min"}]}
{"smiles": "NC[C@@H]1O[C@H](C23CC4CC(CC(C4)C2)C3)Cc2c1ccc(O)c2O", "note": "[A-77636, reference compound]", "values": [{"measurement": "contralateral rotational behavior on repeated dosing", "setting": "[2]", "result": "essentially zero contralateral rotational behavior"}]}
